Tests used:
A. baumanii ATCC 19606 = test: Antibacterial activity (MIC, broth dilution); format: cell-based, Acinetobacter baumanii; details: CLSI, in µg/mL
Description: Staphylococcus aureus ATCC 29213, Escherichia coli ATCC 25922, Enterococcus faecalis ATCC 29212, Streptococcus pneumonia ATCC 49619 and Acinetobacter baumanii ATCC 19606 were obtained from Microbiologics (St. Cloud, MN). E. faecalis ATCC 51575, ATCC 51299 and REMEL C99707 and E. faecium ATCC 51559 (MDR), REMEL IH79985 and REMEL C110914 were generously provided by the Laboratory of Pathology, University of Maryland Baltimore School of Medicine. Unless stated otherwise, chemicals and reagents were purchased from Sigma.
(§1) Determination of the Minimal Inhibitory Concentrations (MIC) by dilution was carried out by broth dilution according to CLSI standards.

E. aerogenes ATCC 13048 = test: Antibacterial activity (MIC, broth dilution); format: cell-based; details: CLSI
Protocol: as §1

E. cloacae ATCC 13047 = test: Antibacterial activity (MIC, broth dilution); format: cell-based; details: CLSI
Protocol: as §1

E. faecium EF1509 (VRE) = test: Antibacterial activity (MIC, broth dilution); format: cell-based; details: CLSI, in µg/mL
Protocol: as §1

E. faecium F118 (VRE) = test: Antibacterial activity (MIC, broth dilution); format: cell-based; details: CLSI, in µg/mL
Protocol: as §1

[1] = system: K. pneumoniae NR-15410 (KPC); test: Antibacterial activity (MIC, broth dilution); format: cell-based; details: CLSI
Protocol: as §1

[2] = system: K. pneumoniae NR-15411 (KPC); test: Antibacterial activity (MIC, broth dilution); format: cell-based; details: CLSI
Protocol: as §1

P. aeruginosa ATCC 27853 = test: Antibacterial activity (MIC, broth dilution); format: cell-based; details: CLSI
Protocol: as §1

P. aeruginosa PA01 = test: Antibacterial activity (MIC, broth dilution); format: cell-based; details: CLSI
Protocol: as §1

P. aeruginosa X13273 = test: Antibacterial activity (MIC, broth dilution); format: cell-based; details: CLSI, in µg/mL
Protocol: as §1

[3] = system: S. aureus HFH-30123 (MRSA); test: Antibacterial activity (MIC, broth dilution); format: cell-based; details: CLSI
Protocol: as §1

S. aureus MRSA 1094 = test: Antibacterial activity (MIC, broth dilution); format: cell-based; details: CLSI
Protocol: as §1

HeLa cells = test: Cytotoxicity against mammalian cells (MTS assay); format: cell-based
Protocol: The cytotoxicity concentration of antibacterial compounds that produces half maximal decrease in viability (CC50) against mammalian cells (HeLa, ATCC CCL-2.2) was determined as described. The effect of compounds on HeLa cell viability was assessed in triplicate by measuring the mitochondrial activity using MTS assays according to the manufacturer’s instructions (Cell Titer 96 proliferation assay, Promega). The cells were incubated for 72 hours in RPMI1640 medium containing the compounds at final concentrations ranging from 64 to 0.125 μg/ml. CC50 was determined using a standard curve of serially diluted untreated cells in each experiment.

[4] = Lipid II binding by Surface Plasmon Resonance; details: SPR, immobilized 3-Lipid II, 25°C
Protocol: Short-chain water-soluble Lipid II containing a lipid tail of three isoprene units was generated and purified essentially as described. Typically, M. flavus vesicles (120 μmol lipid-Pi) were incubated together with 500 μmol UDP-GlcNAc, 500 μmol UDP-MurNAC-pentapeptide and 400 μmol farnesyl phosphate in 100 mM Tris-HCl pH 8.0, 5 mM MgCl2. The incubation lasted two hours at room temperature for 3-P. The synthesis of 3-Lipid II was followed using RP-8 reversed phase TLC (Merck) developed in 75% methanol. For purification, the membranes were removed by centrifugation at 40,000 x g and the supernatant was collected and loaded on a C18 HPLC column and eluted with a linear gradient from 50 mM ammonium bicarbonate to 100% methanol in 30 minutes. Farnesyl-Lipid II (3-Lipid II) eluted at approximately 60% methanol. Its identity was confirmed by mass spectroscopy. Surface Plasmon Resonance binding experiments were carried out on a BIAcore T100 system (BIAcore Inc., Piscataway, NY) at 25°C. The assay buffer was 10 mM HEPES, 150 mM NaCl, 0.05% surfactant P20, pH 7.4 (± 3 mM EDTA) supplemented with 10% DMSO. 3-Lipid II (50 RUs) was immobilized on CM5 sensor chips using the amine-coupling chemistry recommended by the manufacturer. For initial determination of binding, compounds were introduced into the flow-cells (30 μl/min) in the running buffer at 10 μM. Resonance signals were corrected for nonspecific binding by subtracting the background of the control flow-cell. After each analysis, the sensor chip surfaces were regenerated with 50 mM NaOH for 30 s at a flow rate 100 μl/min, and equilibrated with the buffer prior to next injection. For binding kinetics studies, binding isotherms were analyzed with manufacturer-supplied software for BIAcore T100.

## CN(C)c1ccc(/C=C/C=C/c2cc(-c3ccc(Cl)cc3)cc(-c3ccc(Cl)cc3)[o+]2)cc1.F[B-](F)(F)F [6jc43-2]
A. baumanii ATCC 19606
  Antibacterial activity (MIC) A. baumanii ATCC 19606: >=64
E. aerogenes ATCC 13048
  Antibacterial activity (MIC) E. aerogenes ATCC 13048: ≥ 64 µg/mL
E. cloacae ATCC 13047
  Antibacterial activity (MIC) E. cloacae ATCC 13047: ≥ 64 µg/mL
E. faecium EF1509 (VRE)
  Antibacterial activity (MIC) E. faecium EF1509 (VRE): 64
E. faecium F118 (VRE)
  Antibacterial activity (MIC) E. faecium F118 (VRE): >=64
[1]
  Antibacterial activity (MIC) K. pneumoniae NR-15410 (KPC): ≥ 64 µg/mL
[2]
  Antibacterial activity (MIC) K. pneumoniae NR-15411 (KPC): ≥ 64 µg/mL
P. aeruginosa ATCC 27853
  Antibacterial activity (MIC) P. aeruginosa ATCC 27853: ≥ 64 µg/mL
P. aeruginosa PA01
  Antibacterial activity (MIC) P. aeruginosa PA01: ≥ 64 µg/mL
P. aeruginosa X13273
  Antibacterial activity (MIC) P. aeruginosa X13273: >=64
[3]
  Antibacterial activity (MIC) S. aureus HFH-30123 (MRSA): ≥ 64 µg/mL
S. aureus MRSA 1094
  Antibacterial activity (MIC) S. aureus MRSA 1094: ≥ 64 µg/mL
HeLa cells
  CC50% (72 h HeLa cells): >32

## CN(C)c1ccc(/C=C/C=C/c2cc(-c3ccc(Br)cc3)cc(-c3ccc(Br)cc3)[o+]2)cc1.F[B-](F)(F)F [6jc48-2]
A. baumanii ATCC 19606
  Antibacterial activity (MIC) A. baumanii ATCC 19606: >=64
E. aerogenes ATCC 13048
  Antibacterial activity (MIC) E. aerogenes ATCC 13048: ≥ 64 µg/mL
E. cloacae ATCC 13047
  Antibacterial activity (MIC) E. cloacae ATCC 13047: ≥ 64 µg/mL
E. faecium EF1509 (VRE)
  Antibacterial activity (MIC) E. faecium EF1509 (VRE): 4
E. faecium F118 (VRE)
  Antibacterial activity (MIC) E. faecium F118 (VRE): 16
[1]
  Antibacterial activity (MIC) K. pneumoniae NR-15410 (KPC): ≥ 64 µg/mL
[2]
  Antibacterial activity (MIC) K. pneumoniae NR-15411 (KPC): ≥ 64 µg/mL
P. aeruginosa ATCC 27853
  Antibacterial activity (MIC) P. aeruginosa ATCC 27853: ≥ 64 µg/mL
P. aeruginosa PA01
  Antibacterial activity (MIC) P. aeruginosa PA01: ≥ 64 µg/mL
P. aeruginosa X13273
  Antibacterial activity (MIC) P. aeruginosa X13273: >=64
[3]
  Antibacterial activity (MIC) S. aureus HFH-30123 (MRSA): ≥ 64 µg/mL
S. aureus MRSA 1094
  Antibacterial activity (MIC) S. aureus MRSA 1094: ≥ 64 µg/mL
HeLa cells
  CC50% (72 h HeLa cells): 60.51
[4]
  Kd: 1.14 ± 0.3 µM

## Cc1ccc(-c2cc(/C=C/c3ccc(N(C)C)cc3)[o+]c(-c3ccc(C)cc3)c2)cc1.F[B-](F)(F)F [6jc51-1]
A. baumanii ATCC 19606
  Antibacterial activity (MIC) A. baumanii ATCC 19606: 8
E. aerogenes ATCC 13048
  Antibacterial activity (MIC) E. aerogenes ATCC 13048: 64 µg/mL
E. cloacae ATCC 13047
  Antibacterial activity (MIC) E. cloacae ATCC 13047: 64 µg/mL
E. faecium EF1509 (VRE)
  Antibacterial activity (MIC) E. faecium EF1509 (VRE): 0.5
E. faecium F118 (VRE)
  Antibacterial activity (MIC) E. faecium F118 (VRE): 2
[1]
  Antibacterial activity (MIC) K. pneumoniae NR-15410 (KPC): 16 µg/mL
[2]
  Antibacterial activity (MIC) K. pneumoniae NR-15411 (KPC): 64 µg/mL
P. aeruginosa PA01
  Antibacterial activity (MIC) P. aeruginosa PA01: 64 µg/mL
P. aeruginosa X13273
  Antibacterial activity (MIC) P. aeruginosa X13273: 45.25
[3]
  Antibacterial activity (MIC) S. aureus HFH-30123 (MRSA): 2 µg/mL
S. aureus MRSA 1094
  Antibacterial activity (MIC) S. aureus MRSA 1094: 1 µg/mL
HeLa cells
  CC50% (72 h HeLa cells): <.78125
[4]
  Kd: 9.2 ± 2 µM

## Cc1ccc(-c2cc(/C=C/C=C/c3ccc(N(C)C)cc3)[o+]c(-c3ccc(C)cc3)c2)cc1.F[B-](F)(F)F [6jc51-2]
A. baumanii ATCC 19606
  Antibacterial activity (MIC) A. baumanii ATCC 19606: 32
E. aerogenes ATCC 13048
  Antibacterial activity (MIC) E. aerogenes ATCC 13048: ≥ 64 µg/mL
E. cloacae ATCC 13047
  Antibacterial activity (MIC) E. cloacae ATCC 13047: ≥ 64 µg/mL
E. faecium EF1509 (VRE)
  Antibacterial activity (MIC) E. faecium EF1509 (VRE): 0.5
E. faecium F118 (VRE)
  Antibacterial activity (MIC) E. faecium F118 (VRE): 2
[1]
  Antibacterial activity (MIC) K. pneumoniae NR-15410 (KPC): 64 µg/mL
[2]
  Antibacterial activity (MIC) K. pneumoniae NR-15411 (KPC): ≥ 64 µg/mL
P. aeruginosa ATCC 27853
  Antibacterial activity (MIC) P. aeruginosa ATCC 27853: ≥ 64 µg/mL
P. aeruginosa PA01
  Antibacterial activity (MIC) P. aeruginosa PA01: ≥ 64 µg/mL
P. aeruginosa X13273
  Antibacterial activity (MIC) P. aeruginosa X13273: >=64
[3]
  Antibacterial activity (MIC) S. aureus HFH-30123 (MRSA): 4 µg/mL
S. aureus MRSA 1094
  Antibacterial activity (MIC) S. aureus MRSA 1094: 2 µg/mL
HeLa cells
  CC50% (72 h HeLa cells): <.78125
[4]
  Kd: 9.5 ± 2 µM

## CCc1ccc(-c2cc(/C=C/c3ccc(N(C)C)cc3)[o+]c(-c3ccc(CC)cc3)c2)cc1.F[B-](F)(F)F [6jc64-1]
A. baumanii ATCC 19606
  Antibacterial activity (MIC) A. baumanii ATCC 19606: 16
E. aerogenes ATCC 13048
  Antibacterial activity (MIC) E. aerogenes ATCC 13048: ≥ 64 µg/mL
E. cloacae ATCC 13047
  Antibacterial activity (MIC) E. cloacae ATCC 13047: ≥ 64 µg/mL
E. faecium EF1509 (VRE)
  Antibacterial activity (MIC) E. faecium EF1509 (VRE): 4
E. faecium F118 (VRE)
  Antibacterial activity (MIC) E. faecium F118 (VRE): 5.66
[1]
  Antibacterial activity (MIC) K. pneumoniae NR-15410 (KPC): ≥ 64 µg/mL
[2]
  Antibacterial activity (MIC) K. pneumoniae NR-15411 (KPC): ≥ 64 µg/mL
P. aeruginosa ATCC 27853
  Antibacterial activity (MIC) P. aeruginosa ATCC 27853: ≥ 64 µg/mL
P. aeruginosa PA01
  Antibacterial activity (MIC) P. aeruginosa PA01: ≥ 64 µg/mL
P. aeruginosa X13273
  Antibacterial activity (MIC) P. aeruginosa X13273: >=64
[3]
  Antibacterial activity (MIC) S. aureus HFH-30123 (MRSA): 4 µg/mL
S. aureus MRSA 1094
  Antibacterial activity (MIC) S. aureus MRSA 1094: 4 µg/mL
HeLa cells
  CC50% (72 h HeLa cells): <.78125

— paper PMC5077133, “Towards Development of Small Molecule Lipid II Inhibitors as Novel Antibiotics” (PLoS ONE, 2016)
